Data reported in the supplement of paper PMC10307832.

Experiments:
Test in all cases: relative viability (nuclei count vs DMSO), 5 days (fraction); higher = more cells survive
[1] = compound: O=c1[nH]cc(F)c(=O)[nH]1 [5-Fluorouracil] + NC(=O)Nc1cc(-c2cccc(F)c2)sc1C(=O)N[C@H]1CCCNC1 [AZD7762] (partner 0.2 µM)
How it was run: (§1)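 Nuclei were stained with Hoechst during a one-step fixation (final 0.05% Triton X-100, 1% formaldehyde, 1 ug/ml Hoechst) carried out 5 days after dosing, then counted on 4× images. The cells, lung cancer lines in 1536-well plates, had been dosed by pin tool the day after seeding with one drug alone or a fixed anchor-drug dose plus five library-drug doses (not always all listed) in √10 steps. Relative viability is the nuclei count in treated wells divided by that in vehicle wells, and each value is the median of duplicate plates.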

[2] = compound: O=c1[nH]cc(F)c(=O)[nH]1 [5-Fluorouracil] + O=C(CCCCCCC(=O)Nc1ccccc1)NO [Vorinostat] (partner 1 µM)
How it was run: as §1

[3] = compound: O=c1[nH]cc(F)c(=O)[nH]1 [5-Fluorouracil] + Nc1ncn([C@H]2C[C@H](O)[C@@H](CO)O2)c(=O)n1 [Decitabine] (partner 2 µM)
How it was run: as §1

[4] = compound: CN[C@@H]1C[C@H]2O[C@@](C)([C@@H]1OC)n1c3ccccc3c3c4c(c5c6ccccc6n2c5c31)C(=O)NC4 [Staurosporine] + CC1(C)CCC(c2ccc(Cl)cc2)=C(CN2CCN(c3ccc(C(=O)NS(=O)(=O)c4ccc(N[C@H](CCN5CCOCC5)CSc5ccccc5)c(S(=O)(=O)C(F)(F)F)c4)cc3)CC2)C1 [Navitoclax] (partner 0.5 µM)
How it was run: as §1

| Cell Line | relative viability ([1]; first compound 0.02 µM) | relative viability ([1]; first compound 0.2 µM) | relative viability ([1]; first compound 0.6325 µM) | relative viability ([1]; first compound 2 µM) | relative viability ([2]; first compound 0.02 µM) | relative viability ([2]; first compound 0.2 µM) | relative viability ([2]; first compound 0.6325 µM) | relative viability ([2]; first compound 2 µM) | relative viability ([3]; first compound 0.02 µM) | relative viability ([3]; first compound 0.2 µM) | relative viability ([3]; first compound 0.6325 µM) | relative viability ([3]; first compound 2 µM) | relative viability ([4]; first compound 0.005 µM) | relative viability ([4]; first compound 0.01581 µM) | relative viability ([4]; first compound 0.05 µM) | relative viability ([4]; first compound 0.1581 µM) | relative viability ([4]; first compound 0.5 µM) |
| --- | --- | --- | --- | --- | --- | --- | --- | --- | --- | --- | --- | --- | --- | --- | --- | --- | --- |
| NCI-H2085 | 0.938 | 0.935 | 0.837 | 0.644 | 0.754 | 0.96 | 0.728 | 0.651 | 0.516 | 0.567 | 0.657 | 0.526 | 0.757 | 0.583 | 0.541 | 0.415 | 0.366 |
| PC-3 [JPC-3] | 0.815 | 0.855 | 0.908 | 0.816 | 0.752 | 0.825 | 0.871 | 0.522 | 0.851 | 0.873 | 0.779 | 0.75 | 0.933 |  | 0.552 | 0.485 | 0.406 |
| NCI-H838 | 0.915 | 0.684 | 0.654 | 0.642 | 0.716 | 0.637 | 0.404 | 0.266 | 0.48 | 0.447 | 0.359 | 0.291 | 0.307 | 0.22 | 0.203 | 0.161 | 0.113 |
| NCI-H1755 | 0.4 | 0.31 | 0.285 | 0.28 | 0.777 | 0.493 | 0.307 | 0.306 | 0.747 | 0.616 | 0.433 | 0.394 | 1.01 | 0.633 | 0.253 | 0.185 | 0.138 |
| NCI-H1944 | 0.475 | 0.199 | 0.106 | 0.0961 | 0.5 | 0.372 | 0.201 | 0.164 | 0.472 | 0.399 | 0.268 | 0.183 | 1.08 |  | 0.763 | 0.562 | 0.359 |
| LK-2 | 0.482 | 0.486 | 0.153 | 0.188 | 0.275 | 0.3 | 0.303 | 0.304 | 0.328 | 0.341 | 0.334 | 0.269 | 0.965 | 0.54 | 0.456 | 0.109 | 0.0967 |
| HCC-15 | 1.28 | 1.2 | 0.448 | 0.39 | 0.952 | 0.912 | 0.554 | 0.327 | 0.751 | 0.711 | 0.63 | 0.476 | 0.677 |  | 0.392 | 0.282 | 0.183 |
| PC-14 | 0.361 | 0.431 | 0.389 | 0.278 | 0.82 | 0.635 | 0.623 | 0.355 | 0.265 | 0.229 | 0.25 | 0.275 | 0.901 | 0.562 | 0.887 | 0.0852 | 0.053 |
| HOP-62 | 0.636 | 1.06 | 0.522 | 0.473 | 0.629 | 0.699 | 0.626 | 0.509 | 0.247 | 0.211 | 0.256 | 0.246 | 0.957 | 0.528 | 0.152 | 0.121 | 0.104 |
| NCI-H322M | 0.57 | 0.627 | 0.608 | 0.53 | 0.932 | 0.917 | 0.787 | 0.757 | 0.638 | 0.616 | 0.774 | 0.676 | 1.36 | 1.15 | 0.771 | 0.586 | 0.462 |
| NCI-H1395 | 0.395 | 0.405 | 0.459 | 0.385 | 0.728 | 0.755 | 0.645 | 0.756 | 0.802 | 0.781 | 0.771 | 0.736 | 1.05 | 0.495 | 0.458 | 0.327 | 0.301 |
| NCI-H727 | 0.697 | 0.718 | 0.527 | 0.605 | 0.953 | 1.14 | 1 | 0.902 | 0.844 | 0.996 | 0.822 | 0.844 | 0.285 | 0.251 | 0.265 | 0.193 | 0.18 |
| NCI-H1734 | 0.539 | 0.613 | 0.54 | 0.314 | 0.807 | 0.835 | 0.685 | 0.464 | 0.536 | 0.518 | 0.499 | 0.396 | 0.921 | 0.363 | 0.195 | 0.105 | 0.0733 |
| EKVX | 0.322 | 0.157 | 0.145 | 0.157 | 0.69 | 0.328 |  |  | 0.297 |  |  |  | 0.306 | 0.222 | 0.254 | 0.168 | 0.112 |
| NCI-H596 | 1.23 | 0.981 | 0.371 | 0.356 | 0.668 | 0.553 | 0.397 | 0.384 | 1.15 | 0.999 | 0.902 | 0.706 | 1.11 | 0.665 | 0.322 | 0.179 | 0.0954 |
| LCLC-97TM1 | 0.16 | 0.276 | 0.22 | 0.132 | 0.575 | 1.07 | 0.857 | 0.272 | 0.242 | 0.269 | 0.207 | 0.201 | 0.732 | 0.283 | 0.286 | 0.31 | 0.223 |
| NCI-H1355 | 0.673 | 0.37 | 0.231 | 0.198 | 0.625 | 0.49 | 0.264 | 0.243 | 0.332 | 0.332 | 0.26 | 0.245 | 0.975 | 0.549 | 0.249 | 0.28 | 0.217 |
